US20120128630A1, “1-(6 MEMBERS AZO-HETEROCYCLIC)-PYRROLIN-2-ONE COMPOUNDS AS INHIBITORS OF HEPATITIS C NS5B POLYMERASE, THE PHARAMACEUTICAL COMPOSITION THEREOF AND THEIR THERAPEUTIC USE” (priority 2009, published 2012)

molecular target: T1, HCV NS5B genotype 1b (Hepatitis C virus genotype 1b, UniProt Q9WMX2); assay: 3D-SCREEN assay (NS5B 3D-Screen platform, luciferase reporter gene); format: cell-based; conditions: EC50_3DS_NS5B, Table 1, 3D-SCREEN assay results; Huh-7 cells, 24 hours with compound, firefly luciferase reporter
T1 construct: The protein was expressed with a 21 amino acid C-terminal deletion to remove transmembrane domain; expressed in transfected cells; host or cells: Huh-7
Text: cDNA encoding HCV NS5B genotype 1b, was cloned in frame with Gal4-DNA Binding Domain. The protein was expressed with a 21 amino acid C-terminal deletion to remove transmembrane domain. Expression of NS5BΔ21/Gal4 DBD fusion protein was under control of SV40 early promoter. 3D-Sensor peptide was cloned in frame with VP16 activation domain. Expression of 3D-Sensor/VP16 AD fusion protein was under control of CMV promoter. Expression of the firefly luciferase reporter gene was inducible by the [Target protein/conformation sensitive peptide/VP16AD] complex.
It is a single-target, cell based assay. Briefly, expression of a reporter gene depends on the interaction of a short peptide, thereafter named 3D-Sensor, and native conformation of the target protein. Whenever the conformation of the target protein is modified, interaction between 3D-sensor and target protein is disrupted and reporter gene is not expressed anymore. Conformation modifiers are identified by loss of expression of reporter gene. NS5B 3D-Screen platform was generated in Huh-7 cell lines by transient transfection of three expression vectors encoding respectively
(i) HCV NS5BΔ21/Gal4-DBD fusion protein
(ii) the 3D-sensor peptide I4/VP16 fusion protein
(iii) the firefly luciferase reporter gene
Huh-7 cells were dissociated the day before transfection and seeded in T175 flasks at a density of 10^7 cells in 30 ml culture medium. Equimolar ratios of vectors were transfected in cell according to optimized jetPEI transfection protocol (PolyPlus Transfection, Illkirch, France) and 10 μg total DNA/10^6 cells. Transfection was performed for 2 hours at 37° C. and 5% CO2 in a humidified atmosphere. After two hours cells were dissociated and seeded in 96 wells plates at a density of 25,000 cells per well and 90 μl culture medium. 10 μl of compounds to be tested were added 2 hours after seeding. Final concentration of DMSO was 1%. Cells were incubated in the presence of compounds for 24 hours after which expression of firefly luciferase reporter gene was quantified. Briefly, culture medium was removed and cells were lysed by addition of 100 μl of lysis buffer containing 125 mM Tris Phosphate ph 7.8, 10 mM EDTA, 5 mM DTT, 50% glycerol and 5% Triton. Plates were vortexed 10 min at 1300 rpm. Cell lysat was transferred in OpaqueWhite Assay 96 well Flat Bottom plates. 100 μl of luciferin solution 1× were added to each well. Luciferin solution contained 40 mM Tris Phosphate ph 7.8, 0.2 mM EDTA, 67 mM DTT, 2.14 mM MgCl2, 5.4 mM MgSO4, 4.7×10^−4 M luciferin, 5.3×10^−4 M ATP and 2.7×10^−4 M Acetyl co enzyme A. Luminescence was immediately measured with Berthold Microlumat Plus LB 96V luminometer with an integration of 0.5 sec. Inhibition was calculated using the formula: % inhibition=(1−(read/average max))*100. Average max=signal in absence of compound

Compared with `COc1ccc(C(=O)C2=C(O)C(=O)N(c3ccc(C)nn3)C2c2ccc(OC(F)(F)F)cc2)cc1` (stereo not shown) [Example 23, 3-hydroxy-4-(4-methoxy-benzoyl)-1-(6-methyl-pyridazin-3-yl)-5-(4-trifluoromethoxy-phenyl)-1,5-dihydro-pyrrol-2-one], `Cc1ccc(N2C(=O)C(O)=C(C(=O)c3ccc(C(C)C)cc3)C2c2ccc(C(C)C)cc2)nc1` (stereo not shown) [Example 44, 3-hydroxy-4-(4-isopropyl-benzoyl)-5-(4-isopropyl-phenyl)-1-(5-methyl-pyridin-2-yl)-1,5-dihydro-pyrrol-2-one] is 2-fold higher in EC50: 1000 nM for the first, 2000 nM for the second. The first is the more potent here.

same assay, conditions: EC50_3DS_NS5B, Table 2, titled Replicon assay results

`Cc1ccc(N2C(=O)C(O)=C(C(=O)c3ccc(C(C)C)cc3)C2c2ccc(Cn3nccn3)cc2)nn1` (stereo not shown) [Example 147, 3-hydroxy-4-(4-isopropyl-benzoyl)-1-(6-methyl-pyridazin-3-yl)-5-(4-[1,2,3]triazol-2-ylmethyl-phenyl)-1,5-dihydro-pyrrol-2-one] and `Cc1ccc(N2C(=O)C(O)=C(C(=O)c3ccc(C(C)C)cc3)C2c2ccc(Br)cc2)nn1` (stereo not shown) [Example 172, 5-(4-bromo-phenyl)-3-hydroxy-4-(4-isopropyl-benzoyl)-1-(6-methyl-pyridazin-3-yl)-1,5-dihydro-pyrrol-2-one] cannot be ordered by EC50: under 10000 nM for the first, under 1000 nM for the second.

Work on `COc1ccc(C(=O)C2=C(O)C(=O)N(c3ccc(C)nn3)C2c2ccc(OC(C)C)cc2)cc1` (stereo not shown) [Example 100, 3-hydroxy-5-(4-isopropoxy-phenyl)-4-(4-methoxy-benzoyl)-1-(6-methyl-pyridazin-3-yl)-1,5-dihydro-pyrrol-2-one] yielded an EC50 of under 10000 nM.

test system: not given; assay: not given; conditions: not given

Going from `COc1ccc(C(=O)C2=C(O)C(=O)N(c3ccc(C)nn3)C2c2ccc(OC(F)(F)F)cc2)cc1` (stereo not shown) [Example 23, 3-hydroxy-4-(4-methoxy-benzoyl)-1-(6-methyl-pyridazin-3-yl)-5-(4-trifluoromethoxy-phenyl)-1,5-dihydro-pyrrol-2-one] to `COc1ccc(C(=O)C2=C(O)C(=O)N(c3ccc(C)nn3)C2c2ccc(OC)cc2)cc1` (stereo not shown), the melting point falls from 265 °C to 259 °C.

`Cc1ccc(C(=O)C2=C(O)C(=O)N(c3ccc(C)nn3)C2c2ccc(OCCN(C)C)cc2)cc1` (stereo not shown) and `COc1ccc(C2C(C(=O)c3ccc(C)cc3)=C(O)C(=O)N2c2ccc(C)nn2)cc1` (stereo not shown) cannot be ordered by melting point: 263 to 266 °C for the first, 266 °C for the second.

First: Cc1ccc(N2C(=O)C(O)=C(C(=O)c3ccc(C(C)C)cc3)C2c2ccc(Cn3nccn3)cc2)nn1 (stereo not shown) [Example 147, 3-hydroxy-4-(4-isopropyl-benzoyl)-1-(6-methyl-pyridazin-3-yl)-5-(4-[1,2,3]triazol-2-ylmethyl-phenyl)-1,5-dihydro-pyrrol-2-one]
Second: Cc1ccc(N2C(=O)C(O)=C(C(=O)c3ccc(C(C)C)cc3)C2c2ccc(Cn3ncnn3)cc2)nn1 (stereo not shown)
The melting point of the first is higher: 285 °C for the first, 271 °C for the second.

First: CC(=O)c1ccc(C2C(C(=O)c3ccc(C(C)C)cc3)=C(O)C(=O)N2c2ccc(C)nn2)cc1 (stereo not shown)
Second: Cc1ccc(N2C(=O)C(O)=C(C(=O)c3ccc(C(C)C)cc3)C2c2ccc(O)cc2)nn1 (stereo not shown)
The melting point of the first is higher: 259 to 266 °C for the first, 222 to 224 °C for the second.

First: Cc1ccc(N2C(=O)C(O)=C(C(=O)c3ccc(C(C)C)cc3)C2c2ccc(Cn3cncn3)cc2)nn1 (stereo not shown)
Second: Cc1ccc(N2C(=O)C(O)=C(C(=O)c3ccc(C(C)C)cc3)C2c2ccc(Cn3ccnn3)cc2)nn1 (stereo not shown)
The melting point of the first is lower: 223 °C for the first, 293 °C for the second.

Going from `COc1ccc(C2C(C(=O)c3ccc(N4CCOCC4)cc3)=C(O)C(=O)N2c2ccc(C)nn2)cc1` (stereo not shown) to `Cc1ccc(N2C(=O)C(O)=C(C(=O)c3ccc(C(C)C)cc3)C2c2ccc(OCCN3CCOCC3)cc2)nn1` (stereo not shown), the melting point rises from 232 °C to 256 °C.

First: Cc1ccc(N2C(=O)C(O)=C(C(=O)c3ccc(C(C)C)cc3)C2c2ccc(Oc3ccccn3)cc2)nn1 (stereo not shown)
Second: Cc1ccc(N2C(=O)C(O)=C(C(=O)c3ccc(C(C)C)cc3)C2c2ccc(F)cc2)nn1 (stereo not shown)
The melting point of the first is higher: 280 °C for the first, 273 to 278 °C for the second.

Compared with `Cc1ccc(N2C(=O)C(O)=C(C(=O)c3ccc(OC(F)(F)F)cc3)C2c2ccc(Cn3ccnn3)cc2)nn1` (stereo not shown), `Cc1ccc(N2C(=O)C(O)=C(C(=O)c3ccc(OC(F)(F)F)cc3)C2c2ccc(Cn3cncn3)cc2)nn1` (stereo not shown) is lower in melting point: 275 °C for the first, 224 °C for the second.

First: COc1cccc(C2C(C(=O)c3ccc(C)cc3)=C(O)C(=O)N2c2ccc(C)nn2)c1 (stereo not shown)
Second: Cc1ccc(C(=O)C2=C(O)C(=O)N(c3ccc(C)nn3)C2c2cccc(C(F)(F)F)c2)cc1 (stereo not shown)
The melting point of the first is higher: 265 °C for the first, 232 °C for the second.

First: COc1ccc(C(=O)C2=C(O)C(=O)N(c3ccc(C)nn3)C2c2ccc(OC(F)(F)F)cc2)cn1 (stereo not shown)
Second: COC1=C(C(=O)c2ccc(C)cc2)C(c2ccc(OC(F)(F)F)cc2)N(c2ccc(C)nn2)C1=O (stereo not shown)
The melting point of the first is higher: 250 to 251 °C for the first, 206 to 207 °C for the second.

Compared with `COC(=O)c1ccc(N2C(=O)C(O)=C(C(=O)c3ccc(C)cc3)C2c2ccc(C(C)(C)C)cc2)nc1` (stereo not shown), `COC(=O)c1ccc(N2C(=O)C(O)=C(C(=O)c3ccc(C)cc3)C2c2ccc(C(C)C)cc2)nc1` (stereo not shown) is lower in melting point: 287 to 288 °C for the first, 264 to 266 °C for the second.

Compared with `Cc1ccc(C(=O)C2=C(O)C(=O)N(c3ccc(C)nn3)C2c2ccc(N3CCN(CCN(C)C)CC3)cc2)cc1` (stereo not shown), `Cc1ccc(N2C(=O)C(O)=C(C(=O)c3ccc(C(C)C)cc3)C2c2ccc(N3CCN(C)CC3)cc2)nn1` (stereo not shown) is higher in melting point: 185.3 °C for the first, 198 to 203 °C for the second.

First: Cc1ccc(N2C(=O)C(O)=C(C(=O)c3ccc(OC(F)(F)F)cc3)C2c2ccc(Cn3nccn3)cc2)nn1 (stereo not shown)
Second: Cc1ccc(N2C(=O)C(O)=C(C(=O)c3ccc(OC(F)(F)F)cc3)C2c2ccc(Cn3ncnn3)cc2)nn1 (stereo not shown)
The melting point of the first is higher: 277 °C for the first, 258 °C for the second.

Compared with `Cc1ccc(C(=O)C2=C(O)C(=O)N(c3ccc(C)nn3)C2c2ccc(OC3CCN(C)CC3)cc2)cc1` (stereo not shown), `COc1ccccc1C1C(C(=O)c2ccc(C)cc2)=C(O)C(=O)N1c1ccc(C)nn1` (stereo not shown) is lower in melting point: 259 to 260 °C for the first, 211 to 213 °C for the second.

First: Cc1ccc(C(=O)C2=C(O)C(=O)N(c3ccc(C)nn3)C2c2ccc(C)cc2C)cc1 (stereo not shown)
Second: Cc1cccc(C(=O)C2=C(O)C(=O)N(c3ccc(C)nn3)C2c2ccc(C(C)C)cc2)c1 (stereo not shown)
The melting point of the first is higher: 254 °C for the first, 245 to 250 °C for the second.

Compared with `Cc1ccc(N2C(=O)C(O)=C(C(=O)c3ccc(C(C)C)cc3)C2c2ccc(Cn3cccn3)cc2)nn1` (stereo not shown), `Cc1ccc(N2C(=O)C(O)=C(C(=O)c3ccc(C(C)C)cc3)C2c2ccc(-n3cncn3)cc2)nn1` (stereo not shown) is higher in melting point: 263 °C for the first, 284 °C for the second.

Compared with `CCOc1ccc(C2C(C(=O)c3ccc(C(C)C)cc3)=C(O)C(=O)N2c2ccc(C)nn2)nc1` (stereo not shown), `Cc1ccc(N2C(=O)C(O)=C(C(=O)c3cccc(Cl)c3)C2c2ccc(C(C)C)cc2)nn1` (stereo not shown) is higher in melting point: 198 to 199 °C for the first, 271 °C for the second.

Compared with `Cc1ccc(C(=O)C2=C(O)C(=O)N(c3ccc(C(F)(F)F)cn3)C2c2ccc(C(C)C)cc2)cc1` (stereo not shown), `Cc1ccc(C(=O)C2=C(O)C(=O)N(c3ccc(C(C)C)nn3)C2c2ccc(C(C)C)cc2)cc1` (stereo not shown) is higher in melting point: 255 to 257 °C for the first, 269 to 270 °C for the second.

First: Cc1ccc(N2C(=O)C(O)=C(C(=NOCC(=O)O)c3ccc(C(C)C)cc3)C2c2ccc(C(C)C)cc2)nn1 (stereo not shown)
Second: COC1=C(C(=O)c2ccc(C)cc2)C(c2ccc(C(C)C)cc2)N(c2ccc(C)nn2)C1=O (stereo not shown)
The melting point of the first is lower: 234 °C for the first, 248 to 249 °C for the second.

First: Cc1ccc(N2C(=O)C(O)=C(C(=O)c3ccc(-c4ccccn4)cc3)C2c2ccc(OC(F)(F)F)cc2)nn1 (stereo not shown)
Second: COc1ccc(COc2ccc(C(=O)C3=C(O)C(=O)N(c4ccc(C)nn4)C3c3ccc(OC(F)(F)F)cc3)cc2)cc1 (stereo not shown)
The melting point of the first is higher: 247 to 249 °C for the first, 206 to 209 °C for the second.

Going from `Cc1ccc(N2C(=O)C(O)=C(C(=O)c3ccc(C(C)C)cc3)C2c2ccc(-c3nnc(C)o3)cc2)nn1` (stereo not shown) to `Cc1ccc(N2C(=O)C(O)=C(C(=O)c3ccccc3C)C2c2ccc(C(C)C)cc2)nn1` (stereo not shown), the melting point falls from 293 °C to 221 °C.

`Cc1ccc(N2C(=O)C(O)=C(C(=O)c3ccc(C(C)C)cc3)C2c2ccc(Cn3cnnn3)cc2)nn1` (stereo not shown) gave a melting point of over 300 °C.
With `Cc1ccc(N2C(=O)C(O)=C(C(=O)c3ccc(OC(F)(F)F)cc3)C2c2ccc(Cn3cnnn3)cc2)nn1` (stereo not shown) the melting point was over 300 °C.
